{
  "source": "ChEMBL document CHEMBL1201862",
  "about": "“PubChem BioAssay data set” (2004)",
  "test_in_all_cases": "DTP human tumour cell line panel, 48 h",
  "key": {"[1]": {"test_system": "HL-60"}, "[2]": {"test_system": "A549"}, "[3]": {"test_system": "OVCAR-4"}, "[4]": {"test_system": "RXF 393"}, "[5]": {"test_system": "OVCAR-3"}, "[6]": {"test_system": "SW-620"}, "[7]": {"test_system": "UACC-257"}, "[8]": {"test_system": "786-0"}, "[9]": {"test_system": "OVCAR-8"}, "[10]": {"test_system": "SK-MEL-28"}, "[11]": {"test_system": "LOX IMVI"}, "[12]": {"test_system": "HT-29"}, "[13]": {"test_system": "SNB-75"}, "[14]": {"test_system": "HOP-92"}, "[15]": {"test_system": "SNB-19"}, "[16]": {"test_system": "UO-31"}, "[17]": {"test_system": "MDA-N"}, "[18]": {"test_system": "MDA-MB-231"}, "[19]": {"test_system": "CAKI-1"}, "[20]": {"test_system": "UACC-62"}, "[21]": {"test_system": "IGROV-1"}, "[22]": {"test_system": "SN12C"}, "[23]": {"test_system": "SK-MEL-5"}, "[24]": {"test_system": "NCI-H23"}, "[25]": {"test_system": "M14"}, "[26]": {"test_system": "MCF7"}, "[27]": {"test_system": "COLO 205"}, "[28]": {"test_system": "MOLT-4"}, "[29]": {"test_system": "HCC 2998"}, "[30]": {"test_system": "HCT-15"}, "[31]": {"test_system": "HOP-62"}, "[32]": {"test_system": "PC-3"}, "[33]": {"test_system": "SF-268"}, "[34]": {"test_system": "EKVX"}, "[35]": {"test_system": "CCRF-CEM"}, "[36]": {"test_system": "NCI-H522"}, "[37]": {"test_system": "ACHN"}, "[38]": {"test_system": "NCI-H460"}, "[39]": {"test_system": "TK-10"}, "[40]": {"test_system": "U-251"}, "[41]": {"test_system": "SF-295"}, "[42]": {"test_system": "HCT-116"}, "[43]": {"test_system": "Hs-578T"}, "[44]": {"test_system": "T47D"}, "[45]": {"test_system": "OVCAR-5"}, "[46]": {"test_system": "SK-MEL-2"}, "[47]": {"test_system": "NCI-H226"}, "[48]": {"test_system": "NCI/ADR-RES"}, "[49]": {"test_system": "BT-549"}, "[50]": {"test_system": "DU-145"}, "[51]": {"test_system": "MDA-MB-435"}, "[52]": {"test_system": "K562"}, "[53]": {"test_system": "Malme-3M"}, "[54]": {"test_system": "KM12"}, "[55]": {"test_system": "SF-539"}, "[56]": {"test_system": "A498"}, "[57]": {"test_system": "RPMI-8226"}, "[58]": {"test_system": "SK-OV-3"}},
  "note": "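Grown in 96-well plates, cells were treated for 48 hours with each compound at five concentrations. Insufficient inhibition: endpoint recorded as highest concentration tested. Abbreviation: GI50, concentration required for 50% inhibition of growth.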 Calls of active or inactive are those of the source. Rule as the data show it: active = GI50 up to about 1.1 µM and inactive = higher.",
  "data": [
    {"smiles": "CC1(C)CC(=O)C(CCC(=O)/C=C/c2ccccc2)C(=O)C1", "values": [
      {"measurement": "GI50", "setting": "[1]", "result": "2.51 µM (inactive)"},
      {"measurement": "GI50", "setting": "[2]", "result": "> 100 µM (inactive)"},
      {"measurement": "GI50", "setting": "[3]", "result": "> 100 µM (inactive)"},
      {"measurement": "GI50", "setting": "[4]", "result": "> 95.3 µM (inactive)"},
      {"measurement": "GI50", "setting": "[5]", "result": "> 100 µM (inactive)"},
      {"measurement": "GI50", "setting": "[6]", "result": "> 100 µM (inactive)"},
      {"measurement": "GI50", "setting": "[7]", "result": "> 100 µM (inactive)"},
      {"measurement": "GI50", "setting": "[8]", "result": "> 100 µM (inactive)"},
      {"measurement": "GI50", "setting": "[9]", "result": "> 100 µM (inactive)"},
      {"measurement": "GI50", "setting": "[10]", "result": "> 100 µM (inactive)"},
      {"measurement": "GI50", "setting": "[11]", "result": "> 100 µM (inactive)"},
      {"measurement": "GI50", "setting": "[12]", "result": "> 100 µM (inactive)"},
      {"measurement": "GI50", "setting": "[13]", "result": "> 100 µM (inactive)"},
      {"measurement": "GI50", "setting": "[14]", "result": "> 89.3 µM (inactive)"},
      {"measurement": "GI50", "setting": "[15]", "result": "> 76.4 µM (inactive)"},
      {"measurement": "GI50", "setting": "[16]", "result": "> 61.4 µM (inactive)"},
      {"measurement": "GI50", "setting": "[17]", "result": "> 100 µM (inactive)"},
      {"measurement": "GI50", "setting": "[18]", "result": "> 100 µM (inactive)"},
      {"measurement": "GI50", "setting": "[19]", "result": "> 100 µM (inactive)"},
      {"measurement": "GI50", "setting": "[20]", "result": "> 100 µM (inactive)"},
      {"measurement": "GI50", "setting": "[21]", "result": "> 100 µM (inactive)"},
      {"measurement": "GI50", "setting": "[22]", "result": "> 100 µM (inactive)"},
      {"measurement": "GI50", "setting": "[23]", "result": "> 100 µM (inactive)"},
      {"measurement": "GI50", "setting": "[24]", "result": "> 100 µM (inactive)"},
      {"measurement": "GI50", "setting": "[25]", "result": "> 100 µM (inactive)"},
      {"measurement": "GI50", "setting": "[26]", "result": "> 100 µM (inactive)"},
      {"measurement": "GI50", "setting": "[27]", "result": "> 100 µM (inactive)"},
      {"measurement": "GI50", "setting": "[28]", "result": "34 µM (inactive)"},
      {"measurement": "GI50", "setting": "[29]", "result": "> 100 µM (inactive)"},
      {"measurement": "GI50", "setting": "[30]", "result": "> 100", "unit": "µM"},
      {"measurement": "GI50", "setting": "[31]", "result": "> 100 µM (inactive)"},
      {"measurement": "GI50", "setting": "[32]", "result": "> 100 µM (inactive)"},
      {"measurement": "GI50", "setting": "[33]", "result": "> 100 µM (inactive)"},
      {"measurement": "GI50", "setting": "[34]", "result": "> 100 µM (inactive)"},
      {"measurement": "GI50", "setting": "[35]", "result": "> 34.9 µM (inactive)"},
      {"measurement": "GI50", "setting": "[36]", "result": "> 100 µM (inactive)"},
      {"measurement": "GI50", "setting": "[37]", "result": "98.9 µM (inactive)"},
      {"measurement": "GI50", "setting": "[38]", "result": "> 100 µM (inactive)"},
      {"measurement": "GI50", "setting": "[39]", "result": "> 100 µM (inactive)"},
      {"measurement": "GI50", "setting": "[40]", "result": "> 100 µM (inactive)"},
      {"measurement": "GI50", "setting": "[41]", "result": "> 100 µM (inactive)"},
      {"measurement": "GI50", "setting": "[42]", "result": "> 100 µM (inactive)"},
      {"measurement": "GI50", "setting": "[43]", "result": "> 100 µM (inactive)"},
      {"measurement": "GI50", "setting": "[44]", "result": "> 100 µM (inactive)"},
      {"measurement": "GI50", "setting": "[45]", "result": "> 100 µM (inactive)"},
      {"measurement": "GI50", "setting": "[46]", "result": "> 100 µM (inactive)"},
      {"measurement": "GI50", "setting": "[47]", "result": "> 100 µM (inactive)"},
      {"measurement": "GI50", "setting": "[48]", "result": "> 100 µM (inactive)"},
      {"measurement": "GI50", "setting": "[49]", "result": "> 100 µM (inactive)"},
      {"measurement": "GI50", "setting": "[50]", "result": "> 100 µM (inactive)"},
      {"measurement": "GI50", "setting": "[51]", "result": "> 100 µM (inactive)"},
      {"measurement": "GI50", "setting": "[52]", "result": "> 100 µM (inactive)"},
      {"measurement": "GI50", "setting": "[53]", "result": "> 100 µM (inactive)"},
      {"measurement": "GI50", "setting": "[54]", "result": "> 100 µM (inactive)"},
      {"measurement": "GI50", "setting": "[55]", "result": "> 100 µM (inactive)"},
      {"measurement": "GI50", "setting": "[56]", "result": "> 100 µM (inactive)"},
      {"measurement": "GI50", "setting": "[57]", "result": "> 100 µM (inactive)"},
      {"measurement": "GI50", "setting": "[58]", "result": "> 100 µM (inactive)"}
    ]}
  ]
}
